Laboratory results taken from ChEMBL document CHEMBL1201862, “PubChem BioAssay data set” (2004).
Values belong to the molecule of their own block, whether it stands above or below them. The source made the active and inactive calls.

Tests used:
[1] = target: Phosphorylase b kinase gamma catalytic chain, liver/testis isoform (Homo sapiens, UniProt P15735); assay type: functional;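 further: PHKG2 measured as one member of a kinome-wide kinase panel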
[2] = target: Serine/threonine-protein kinase TBK1 (Homo sapiens, UniProt Q9UHD2); assay: Navigating the Kinome. Panel member name: TBK1; assay type: functional
[3] = target: Serine/threonine-protein kinase PLK4 (Homo sapiens, UniProt O00444); assay type: functional;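 further: PLK4 measured as one member of a kinome-wide kinase profiling panel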
[4] = target: Serine/threonine-protein kinase 17A (Homo sapiens, UniProt Q9UEE5); assay type: functional
Sequence of Serine/threonine-protein kinase 17A (Q9UEE5 whole entry): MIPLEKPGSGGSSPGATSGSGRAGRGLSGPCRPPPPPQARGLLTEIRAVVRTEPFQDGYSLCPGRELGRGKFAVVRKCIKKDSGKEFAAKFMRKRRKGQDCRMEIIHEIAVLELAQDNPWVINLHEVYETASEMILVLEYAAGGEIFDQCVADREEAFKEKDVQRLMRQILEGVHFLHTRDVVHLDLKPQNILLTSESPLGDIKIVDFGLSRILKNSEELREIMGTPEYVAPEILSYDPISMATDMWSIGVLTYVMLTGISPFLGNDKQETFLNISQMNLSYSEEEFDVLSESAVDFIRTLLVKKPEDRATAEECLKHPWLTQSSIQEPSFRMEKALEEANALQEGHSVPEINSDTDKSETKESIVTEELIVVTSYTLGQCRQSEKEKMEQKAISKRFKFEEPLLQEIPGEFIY

Activin receptor type-1 = Activin receptor type-1 (Homo sapiens, UniProt Q04771); assay: Navigating the Kinome. Panel member name: ACVR1; assay type: functional
[5] = target: MAP kinase-activated protein kinase 2 (Homo sapiens, UniProt P49137); assay type: functional;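 further: measured as one member of a kinome-wide kinase panel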
[6] = target: Casein kinase II subunit alpha (Homo sapiens, UniProt P68400); assay type: functional
Sequence of Casein kinase II subunit alpha (P68400 whole entry): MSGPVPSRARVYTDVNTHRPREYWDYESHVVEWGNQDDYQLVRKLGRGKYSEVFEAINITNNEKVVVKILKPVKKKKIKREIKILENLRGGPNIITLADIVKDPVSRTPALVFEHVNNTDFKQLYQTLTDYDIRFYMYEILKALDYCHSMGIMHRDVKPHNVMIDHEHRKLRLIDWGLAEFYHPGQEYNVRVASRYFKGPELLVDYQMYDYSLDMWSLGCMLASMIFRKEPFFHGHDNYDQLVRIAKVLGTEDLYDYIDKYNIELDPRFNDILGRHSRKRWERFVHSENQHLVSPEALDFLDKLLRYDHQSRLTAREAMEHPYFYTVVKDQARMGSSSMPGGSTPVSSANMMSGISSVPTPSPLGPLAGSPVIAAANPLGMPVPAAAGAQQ

[7] = target: Serine/threonine-protein kinase PAK 1 (Homo sapiens, UniProt Q13153); assay type: functional
Sequence of Serine/threonine-protein kinase PAK 1 (Q13153 whole entry): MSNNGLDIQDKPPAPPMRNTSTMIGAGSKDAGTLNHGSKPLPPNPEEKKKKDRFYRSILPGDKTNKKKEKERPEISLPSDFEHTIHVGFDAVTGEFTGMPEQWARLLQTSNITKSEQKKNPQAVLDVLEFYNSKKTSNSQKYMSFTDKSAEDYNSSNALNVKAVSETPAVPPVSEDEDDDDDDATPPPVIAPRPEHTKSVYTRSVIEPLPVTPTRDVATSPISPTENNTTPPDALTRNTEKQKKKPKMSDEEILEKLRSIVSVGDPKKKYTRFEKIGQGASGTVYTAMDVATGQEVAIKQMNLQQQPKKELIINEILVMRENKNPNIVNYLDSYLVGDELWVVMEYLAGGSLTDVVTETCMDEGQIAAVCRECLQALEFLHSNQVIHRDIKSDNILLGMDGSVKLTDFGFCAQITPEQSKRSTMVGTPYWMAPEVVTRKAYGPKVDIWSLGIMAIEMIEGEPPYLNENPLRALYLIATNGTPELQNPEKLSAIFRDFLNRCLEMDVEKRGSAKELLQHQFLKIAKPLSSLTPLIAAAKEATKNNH

[8] = target: Calcium/calmodulin-dependent protein kinase type II subunit delta (Homo sapiens, UniProt Q13557); assay type: functional
Sequence of Calcium/calmodulin-dependent protein kinase type II subunit delta (Q13557 whole entry, canonical isoform): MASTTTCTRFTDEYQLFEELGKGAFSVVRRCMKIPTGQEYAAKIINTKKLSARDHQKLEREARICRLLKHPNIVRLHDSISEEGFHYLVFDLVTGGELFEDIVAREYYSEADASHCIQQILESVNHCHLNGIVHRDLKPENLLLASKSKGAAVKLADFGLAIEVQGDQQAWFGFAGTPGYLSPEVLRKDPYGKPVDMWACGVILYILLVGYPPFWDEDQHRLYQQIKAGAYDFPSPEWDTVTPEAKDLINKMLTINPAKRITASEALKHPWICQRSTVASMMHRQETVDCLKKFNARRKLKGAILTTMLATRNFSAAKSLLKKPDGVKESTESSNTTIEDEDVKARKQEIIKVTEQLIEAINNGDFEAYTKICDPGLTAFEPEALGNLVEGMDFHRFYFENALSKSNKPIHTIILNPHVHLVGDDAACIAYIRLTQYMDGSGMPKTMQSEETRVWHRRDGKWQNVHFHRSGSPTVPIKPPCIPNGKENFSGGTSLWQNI

[9] = target: Casein kinase I isoform alpha (Homo sapiens, UniProt P48729); assay type: functional
Sequence of Casein kinase I isoform alpha (P48729 whole entry, canonical isoform): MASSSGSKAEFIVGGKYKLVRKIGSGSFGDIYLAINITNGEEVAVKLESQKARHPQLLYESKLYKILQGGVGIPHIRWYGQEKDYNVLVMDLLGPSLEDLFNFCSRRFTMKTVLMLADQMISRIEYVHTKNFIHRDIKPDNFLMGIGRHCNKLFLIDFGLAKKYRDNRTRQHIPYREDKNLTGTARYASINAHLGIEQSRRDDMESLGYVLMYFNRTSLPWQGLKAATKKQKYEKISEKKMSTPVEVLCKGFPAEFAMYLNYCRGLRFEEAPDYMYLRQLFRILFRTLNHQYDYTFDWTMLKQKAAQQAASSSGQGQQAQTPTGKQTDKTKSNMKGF

[10] = target: Tyrosine-protein kinase ITK/TSK (Homo sapiens, UniProt Q08881); assay type: functional;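 further: affinity for ITK measured as one member of a broad kinase panel profiling binding across the kinome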
[11] = target: Serine/threonine-protein kinase pim-3 (Homo sapiens, UniProt Q86V86); assay type: functional;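 further: value obtained as one member of a broad kinase panel profiling effort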
[12] = target: Non-receptor tyrosine-protein kinase TYK2 (Homo sapiens, UniProt P29597); assay type: functional
[13] = target: Dual specificity tyrosine-phosphorylation-regulated kinase 3 (Homo sapiens, UniProt O43781); assay type: functional;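 further: measured as one member of a broad kinase panel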
[14] = target: Receptor tyrosine-protein kinase erbB-2 (Homo sapiens, UniProt P04626); assay: Navigating the Kinome. Panel member name: ERBB2; assay type: functional
Sequence of Receptor tyrosine-protein kinase erbB-2 (P04626 whole entry): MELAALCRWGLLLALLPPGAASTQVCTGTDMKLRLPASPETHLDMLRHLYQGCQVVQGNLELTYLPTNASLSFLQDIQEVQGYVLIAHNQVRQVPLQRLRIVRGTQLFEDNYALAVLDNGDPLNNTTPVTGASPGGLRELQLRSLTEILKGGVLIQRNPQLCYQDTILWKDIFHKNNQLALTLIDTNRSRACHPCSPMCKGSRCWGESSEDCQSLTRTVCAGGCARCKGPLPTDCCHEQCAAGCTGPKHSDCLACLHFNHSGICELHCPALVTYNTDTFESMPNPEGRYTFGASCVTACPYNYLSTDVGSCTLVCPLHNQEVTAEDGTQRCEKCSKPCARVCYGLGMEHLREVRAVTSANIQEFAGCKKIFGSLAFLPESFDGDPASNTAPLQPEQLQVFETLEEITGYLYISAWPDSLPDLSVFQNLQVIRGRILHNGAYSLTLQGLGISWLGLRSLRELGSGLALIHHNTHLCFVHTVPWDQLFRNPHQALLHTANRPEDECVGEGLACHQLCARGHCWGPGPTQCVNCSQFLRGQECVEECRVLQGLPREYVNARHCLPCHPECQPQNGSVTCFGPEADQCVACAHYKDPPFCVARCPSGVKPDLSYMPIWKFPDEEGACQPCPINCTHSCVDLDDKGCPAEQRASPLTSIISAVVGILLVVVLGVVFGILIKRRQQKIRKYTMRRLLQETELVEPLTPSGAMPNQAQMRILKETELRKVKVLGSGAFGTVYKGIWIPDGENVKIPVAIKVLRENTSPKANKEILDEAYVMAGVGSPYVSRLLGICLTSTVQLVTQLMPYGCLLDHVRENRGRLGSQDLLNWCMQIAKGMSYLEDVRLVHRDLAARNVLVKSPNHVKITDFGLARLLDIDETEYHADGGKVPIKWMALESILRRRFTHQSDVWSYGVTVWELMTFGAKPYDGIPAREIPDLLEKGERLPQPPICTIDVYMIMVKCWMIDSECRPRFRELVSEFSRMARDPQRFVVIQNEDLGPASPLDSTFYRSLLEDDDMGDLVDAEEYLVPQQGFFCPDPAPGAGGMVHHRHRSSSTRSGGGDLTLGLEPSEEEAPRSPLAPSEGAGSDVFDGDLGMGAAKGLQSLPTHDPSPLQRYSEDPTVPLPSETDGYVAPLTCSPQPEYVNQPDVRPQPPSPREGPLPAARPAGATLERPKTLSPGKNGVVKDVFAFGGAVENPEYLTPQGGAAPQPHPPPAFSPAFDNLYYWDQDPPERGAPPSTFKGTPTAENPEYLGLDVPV

[15] = target: MAP kinase-activated protein kinase 3 (Homo sapiens, UniProt Q16644); assay type: functional;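 further: value comes from a kinome-wide profiling panel in which MAPKAPK3 is one of the panel members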
Sequence of MAP kinase-activated protein kinase 3 (Q16644 whole entry): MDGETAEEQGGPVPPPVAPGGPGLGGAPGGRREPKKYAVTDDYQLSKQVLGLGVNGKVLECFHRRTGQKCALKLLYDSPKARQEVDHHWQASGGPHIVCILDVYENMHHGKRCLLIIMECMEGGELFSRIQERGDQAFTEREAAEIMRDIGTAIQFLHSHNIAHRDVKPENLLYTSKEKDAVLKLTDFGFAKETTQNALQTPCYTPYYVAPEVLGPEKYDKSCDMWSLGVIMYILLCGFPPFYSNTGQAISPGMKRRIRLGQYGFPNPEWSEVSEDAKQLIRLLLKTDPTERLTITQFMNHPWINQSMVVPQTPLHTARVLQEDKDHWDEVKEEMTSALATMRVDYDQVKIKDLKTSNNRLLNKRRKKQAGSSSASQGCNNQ

[16] = target: Serine/threonine-protein kinase Chk1 (Homo sapiens, UniProt O14757); assay type: functional;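 further: measured as one member of a kinome-wide kinase profiling panel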
[17] = target: cAMP-dependent protein kinase catalytic subunit PRKX (Homo sapiens, UniProt P51817); assay type: functional
[18] = target: Leucine-rich repeat serine/threonine-protein kinase 2 (Homo sapiens, UniProt Q5S007); assay type: functional;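 further: value from a broad kinome-wide panel profiling study in which LRRK2 was one of the kinases tested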
[19] = target: Rho-associated protein kinase 1 (Homo sapiens, UniProt Q13464); assay type: functional;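 further: measured within a broad kinome-wide panel profiling many kinases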
[20] = target: Homeodomain-interacting protein kinase 4 (Homo sapiens, UniProt Q8NE63); assay type: functional
[21] = target: Cyclin-dependent kinase 8 (Homo sapiens, UniProt P49336); assay: Navigating the Kinome. Panel member name: CDK8; assay type: functional
[22] = target: Cyclin-dependent kinase 7 (Homo sapiens, UniProt P50613); assay type: functional;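 further: value comes from a kinome-wide kinase profiling panel in which CDK7 is one member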
[23] = target: Serine/threonine-protein kinase PLK1 (Homo sapiens, UniProt P53350); assay type: functional;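 further: PLK1 measured as one member of a kinome-wide profiling panel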
[24] = target: Cyclin-dependent kinase 9 (Homo sapiens, UniProt P50750); assay type: functional;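 further: value from the CDK9 entry of a kinome-spanning kinase panel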
Sequence of Cyclin-dependent kinase 9 (P50750 whole entry): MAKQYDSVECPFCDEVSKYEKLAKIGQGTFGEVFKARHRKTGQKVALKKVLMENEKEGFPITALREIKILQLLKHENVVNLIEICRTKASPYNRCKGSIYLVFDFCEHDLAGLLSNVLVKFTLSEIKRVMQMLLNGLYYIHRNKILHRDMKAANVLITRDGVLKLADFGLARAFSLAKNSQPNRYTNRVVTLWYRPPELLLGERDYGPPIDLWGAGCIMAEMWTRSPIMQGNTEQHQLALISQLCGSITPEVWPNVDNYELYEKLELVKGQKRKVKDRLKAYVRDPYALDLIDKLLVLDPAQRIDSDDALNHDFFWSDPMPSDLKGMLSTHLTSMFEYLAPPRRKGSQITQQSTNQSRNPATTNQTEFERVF

[25] = target: cAMP-dependent protein kinase catalytic subunit alpha (Homo sapiens, UniProt P17612); assay type: functional
[26] = target: Mitogen-activated protein kinase kinase kinase kinase 4 (Homo sapiens, UniProt O95819); assay type: functional
[27] = target: Serine/threonine-protein kinase BRSK1 (Homo sapiens, UniProt Q8TDC3); assay type: functional;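 further: measured within a kinome-wide kinase panel, with the target listed as KIAA1811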
[28] = target: Dual specificity tyrosine-phosphorylation-regulated kinase 1A (Homo sapiens, UniProt Q13627); assay type: functional;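 further: measured against DYRK1A as one member of a broad kinome profiling panel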
[29] = target: Inhibitor of nuclear factor kappa-B kinase subunit epsilon (Homo sapiens, UniProt Q14164); assay: Navigating the Kinome. Panel member name: IKBKE; assay type: functional
[30] = target: Leukocyte tyrosine kinase receptor (Homo sapiens, UniProt P29376); assay: Navigating the Kinome. Panel member name: LTK; assay type: functional
[31] = target: Tyrosine-protein kinase FRK (Homo sapiens, UniProt P42685); assay type: functional;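 further: FRK tested as one member of a kinome panel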
Sequence of Tyrosine-protein kinase FRK (P42685 whole entry): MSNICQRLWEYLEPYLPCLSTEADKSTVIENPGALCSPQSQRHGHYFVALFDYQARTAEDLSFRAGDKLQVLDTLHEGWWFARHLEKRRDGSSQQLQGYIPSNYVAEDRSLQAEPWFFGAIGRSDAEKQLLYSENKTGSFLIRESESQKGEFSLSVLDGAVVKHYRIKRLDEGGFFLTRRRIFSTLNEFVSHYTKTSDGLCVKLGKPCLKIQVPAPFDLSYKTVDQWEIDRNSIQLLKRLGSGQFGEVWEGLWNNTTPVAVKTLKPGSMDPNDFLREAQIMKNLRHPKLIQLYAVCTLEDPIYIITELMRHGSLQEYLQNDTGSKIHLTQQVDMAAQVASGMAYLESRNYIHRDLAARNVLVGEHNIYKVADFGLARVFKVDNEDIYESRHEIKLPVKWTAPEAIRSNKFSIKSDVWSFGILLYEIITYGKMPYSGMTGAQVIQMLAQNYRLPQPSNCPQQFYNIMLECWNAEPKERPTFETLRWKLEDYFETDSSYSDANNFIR

[32] = target: T1, Zinc finger protein mex-5 (Caenorhabditis elegans, UniProt Q9XUB2); assay: potency of MEX-5 RNA-binding blockers – biochemical, C. elegans, fluorescence polarization, dose response (AID 1960)
T1 sequence (Q9XUB2 whole entry): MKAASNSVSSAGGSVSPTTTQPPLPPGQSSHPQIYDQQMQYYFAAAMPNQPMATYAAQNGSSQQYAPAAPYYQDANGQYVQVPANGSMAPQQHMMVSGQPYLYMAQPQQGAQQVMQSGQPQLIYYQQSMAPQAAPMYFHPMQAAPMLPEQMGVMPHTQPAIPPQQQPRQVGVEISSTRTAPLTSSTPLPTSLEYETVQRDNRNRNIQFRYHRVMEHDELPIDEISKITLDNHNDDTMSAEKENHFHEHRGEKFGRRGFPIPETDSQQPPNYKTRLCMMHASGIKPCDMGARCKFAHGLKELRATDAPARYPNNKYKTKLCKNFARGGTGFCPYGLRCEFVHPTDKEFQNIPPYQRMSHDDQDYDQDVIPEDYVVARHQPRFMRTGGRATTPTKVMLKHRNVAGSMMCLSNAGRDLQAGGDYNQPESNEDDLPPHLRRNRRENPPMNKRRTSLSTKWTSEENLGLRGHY

[33] = target: T2, Tyrosyl-DNA phosphodiesterase 2 (Homo sapiens, UniProt O95551); assay: potency against TDP2 phosphodiesterase activity – biochemical, epi absorbance, IC50, dose response (AID 743297)
T2 sequence (O95551 whole entry): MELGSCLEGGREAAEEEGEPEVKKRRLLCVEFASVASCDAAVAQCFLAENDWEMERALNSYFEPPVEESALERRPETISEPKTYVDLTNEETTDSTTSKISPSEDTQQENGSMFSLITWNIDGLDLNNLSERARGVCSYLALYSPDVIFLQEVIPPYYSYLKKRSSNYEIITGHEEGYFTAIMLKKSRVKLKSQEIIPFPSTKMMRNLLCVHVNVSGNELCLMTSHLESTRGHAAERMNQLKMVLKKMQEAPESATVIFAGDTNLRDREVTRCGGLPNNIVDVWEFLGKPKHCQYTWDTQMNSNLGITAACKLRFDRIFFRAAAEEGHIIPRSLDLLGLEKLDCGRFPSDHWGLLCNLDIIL

Ki [1]: > 5.01 µM (inactive)
Ki [2]: > 3.16 µM (inactive)
Ki [3]: > 3.98 µM (inactive)
Ki [4]: > 2.51 µM (inactive)
Ki (Activin receptor type-1): > 3.98 µM (inactive)
Ki [5]: 2.51 µM (active)
Ki [6]: 0.251 µM (active)
Ki [7]: 1.58 µM (active)
Ki [8]: > 3.16 µM (inactive)
Ki [9]: > 5.01 µM (inactive)
Ki [10]: > 1.58 µM (inactive)
Ki [11]: 6.31 µM (active)
Ki [12]: 1.58 µM (active)
Ki [13]: 0.1 µM (active)
Ki [14]: > 1.58 µM (inactive)
Ki [15]: > 10 µM (inactive)
Ki [16]: 1 µM (active)
Ki [17]: 0.501 µM (active)
Ki [18]: 2.51 µM (active)
Ki [19]: > 0.1 µM (inactive)
Ki [20]: 1.26 µM (active)
Ki [21]: 3.16 µM (active)
Ki [22]: > 6.31 µM (inactive)
Ki [23]: 0.501 µM (active)
Ki [24]: > 3.98 µM (inactive)
Ki [25]: 0.398 µM (active)
Ki [26]: > 0.2 µM (inactive)
Ki [27]: 2 µM (active)
Ki [28]: 0.631 µM (active)
Ki [29]: > 3.16 µM (inactive)
Ki [30]: > 2.51 µM (inactive)
Ki [31]: > 2.51 µM (inactive)
Compound: Clc1cc(NC2CCCCC2)nc(-c2c[nH]c3ncccc23)n1

Compound: Cc1ccc(/C=C2/C(=O)c3ccc(C(=O)O)cc3C2=O)o1
EC50 [32]: 63.6 µM (active)
IC50 [33]: > 128 µM (inactive)
